In patent publication US20170037028A1 (BAYER PHARMA AKTIENGESELLSCHAFT, priority 2013, published 2017):

Target: T1, GLUT1 (Homo sapiens, UniProt P11166)
T1 sequence (P11166 1-492): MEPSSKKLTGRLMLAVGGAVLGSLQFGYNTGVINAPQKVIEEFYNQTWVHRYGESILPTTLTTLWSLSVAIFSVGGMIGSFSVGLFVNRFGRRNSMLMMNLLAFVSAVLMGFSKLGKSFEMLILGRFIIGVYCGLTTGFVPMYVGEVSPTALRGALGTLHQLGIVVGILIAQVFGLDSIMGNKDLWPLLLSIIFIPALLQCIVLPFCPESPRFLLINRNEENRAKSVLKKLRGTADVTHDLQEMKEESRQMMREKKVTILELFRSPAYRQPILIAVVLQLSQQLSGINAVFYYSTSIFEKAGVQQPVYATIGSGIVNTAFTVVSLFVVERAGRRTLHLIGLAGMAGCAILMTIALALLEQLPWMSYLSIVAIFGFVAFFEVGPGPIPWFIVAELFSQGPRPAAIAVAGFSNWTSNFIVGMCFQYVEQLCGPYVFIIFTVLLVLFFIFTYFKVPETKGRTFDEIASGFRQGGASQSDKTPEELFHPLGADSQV
Assay: Indirect measurement of GLUT1 activity by quantification of intracellular ATP levels (glucose induced ATP increase)
Assay type: cell-based
Set-up: endogenous in cells; host or cells: DLD1 or CHO-K1
Conditions: read-out: IC50 regarding glucose induced ATP increase (GLUT1 inhibition)
Method in brief: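 DLD1 or CHO-K1 cells were starved overnight in glucose-free medium with 1% FCS, then combined with an oxidative phosphorylation inhibitor. GLUT1 activity was read as glucose-induced ATP increase, GLUT2 as fructose-induced. Intracellular ATP was quantified by CellTiter-Glo luminescence.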

| Structure (SMILES) | IC50 [nM] |
| --- | --- |
| Cc1nn(Cc2cscn2)c(C)c1NC(=O)c1cc(C(N)=O)nc2ccccc12 [Example 1339] | 72.2 |
| COc1ccc(CCn2nc(C)c(NC(=O)c3cc(OC)nc4ccccc34)c2C)cc1 [Example 1341] | 297 |
| Cc1nn(Cc2cnn(C)c2C)c(C)c1NC(=O)c1cc(C(F)(F)F)nc2ccc(Br)cc12 [Example 1342] | 26.5 |
| Cc1nn(CCOc2ccc(C#N)cc2)c(C)c1NC(=O)c1cc(C(F)(F)F)nc2ccc(Br)cc12 [Example 1344] | 323 |
| COc1ccc(CCn2nc(C)c(NC(=O)c3cc(C(N)=O)nc4cc(F)c(Cl)cc34)c2C)cc1 [Example 1346] | 10.6 |
| Cc1nn(CC2CNC(=O)O2)c(C)c1NC(=O)c1cc(C(N)=O)nc2ccccc12 (stereo not drawn) [Example 1347] | 3950 |
| COc1cc(C(=O)Nc2c(C)nn(CCOc3ccc(C#N)cc3)c2C)c2ccccc2n1 [Example 1348] | 188 |
| Cc1nn(Cc2ccc(C#N)cc2F)c(C)c1NC(=O)c1cc(C(F)(F)F)nc2ccc(Br)cc12 [Example 1349] | 7.5 |
| COc1ccc(CCn2nc(C)c(NC(=O)c3cc(C(F)(F)F)nc4ccc(Br)cc34)c2C)cc1 [Example 1350] | 41.6 |
| Cc1nn(Cc2cscn2)c(C)c1NC(=O)c1cc(C(F)(F)F)nc2ccc(Br)cc12 [Example 1351] | 134 |
| COc1cc(C(=O)Nc2c(C)nn(Cc3ccc(C#N)cc3F)c2C)c2ccccc2n1 [Example 1352] | 35.1 |
| COc1ccc(CCn2nc(C)c(NC(=O)c3cc(C(N)=O)nc4ccccc34)c2C)cc1 [Example 1353] | 38.9 |
| Cc1nc(Cn2nc(C)c(NC(=O)c3cc(C(F)(F)F)nc4ccc(Br)cc34)c2C)cs1 [Example 1354] | 48.9 |
| CC(C)c1nn(Cc2ccc(F)cc2)c(C(C)C)c1NC(=O)c1cc(C(F)(F)F)nc2ccc(Br)cc12 [Example 1355] | > 13000 |
| Cc1ccc2nc(C)cc(C(=O)Nc3c(C(C)C)nn(Cc4ccc(F)cc4)c3C(C)C)c2c1 [Example 1356] | > 13000 |
| CC(C)c1nn(Cc2ccc(F)cc2)c(C(C)C)c1NC(=O)c1cc(C(F)(F)F)nc2cc(F)c(F)cc12 [Example 1357] | > 13000 |
| Cc1c(NC(=O)c2cc(C(F)(F)F)nc3ccc(Br)cc23)c(C(F)(F)F)nn1Cc1ccc(C#N)cc1F [Example 1358] | 4.3 |
| COc1cc(C(=O)Nc2c(C(F)(F)F)nn(Cc3ccc(C#N)cc3F)c2C)c2ccccc2n1 [Example 1359] | 22 |
| Cc1c(NC(=O)c2cc(C(F)(F)F)nc3ccc(Br)cc23)c(C(F)(F)F)nn1Cc1ccncc1 [Example 1365] | 167 |
| COc1cc(C(=O)Nc2c(C(F)(F)F)nn(Cc3ccncc3)c2C)c2ccccc2n1 [Example 1366] | 38.1 |
| Cc1c(NC(=O)c2cc(C(N)=O)nc3ccccc23)c(C(F)(F)F)nn1Cc1ccncc1 [Example 1367] | 275 |
| Cc1c(NC(=O)c2cc(C(N)=O)nc3cc(F)c(Cl)cc23)c(C(F)(F)F)nn1Cc1ccncc1 [Example 1368] | 29.3 |

| Structure (SMILES) | IC50 [nM] |
| --- | --- |
| Cc1nn(Cc2ccc(C(C)(C)C)cc2)c(C)c1NC(=O)c1cc(C(N)=O)nc2ccccc12 [Example 1369] | 143 |
| Cc1c(NC(=O)c2cc(C(N)=O)nc3ccccc23)c(C(F)(F)F)nn1Cc1ccc(C(C)(C)C)cc1 [Example 1370] | 1090 |
| Cc1c(NC(=O)c2cc(C(N)=O)nc3ccccc23)c(C(F)(F)F)nn1CCc1ccc(F)cc1 [Example 1371] | 144 |
| COc1cc(C(=O)Nc2c(C(F)(F)F)nn(CCc3ccc(F)cc3)c2C)c2ccccc2n1 [Example 1372] | 950 |
| Cc1c(NC(=O)c2cc(C(F)(F)F)nc3ccc(Br)cc23)c(C(F)(F)F)nn1CCc1ccc(F)cc1 [Example 1373] | 1990 |
| COc1cc(C(=O)Nc2c(C)nn(C(C)c3ccc(F)cc3)c2C)c2ccccc2n1 (stereo not drawn) [Example 1375] | 15.1 |
| COc1cc(C(=O)Nc2c(C(F)(F)F)nn(Cc3ccc(C#N)cc3)c2C)c2cc(F)ccc2n1 [Example 1376] | 18.9 |
| Cc1ccc2nc(C(N)=O)cc(C(=O)Nc3c(C)nn(Cc4ccc(F)cc4)c3C)c2c1 [Example 1377] | 1.7 |
| Cc1c(NC(=O)c2cc(C(N)=O)nc3ccc(S(N)(=O)=O)cc23)c(C(F)(F)F)nn1Cc1ccc(C#N)cc1 [Example 1382] | 5370 |
| Cc1nn(Cc2ccc(C(C)(C)C)cc2)c(C)c1NC(=O)c1cc(C(N)=O)nc2cc(F)ccc12 [Example 1383] | 140 |
| CCc1nn(Cc2ccc(F)cc2)c(CC)c1NC(=O)c1cc(C(N)=O)nc2c(F)cccc12 [Example 1384] | 425 |
| CCc1nn(Cc2ccc(F)cc2)c(CC)c1NC(=O)c1cc(C(N)=O)nc2cc(F)ccc12 [Example 1385] | 60.7 |
| CCc1nn(Cc2ccc(F)cc2)c(CC)c1NC(=O)c1cc(C(N)=O)nc2cc(F)c(Cl)cc12 [Example 1386] | 13.6 |
| CCc1nn(Cc2ccc(F)cc2)c(CC)c1NC(=O)c1cc(C(N)=O)nc2ccccc12 [Example 1387] | 36.7 |
| CCc1nn(Cc2ccc(F)cc2)c(CC)c1NC(=O)c1cc(C(F)(F)F)nc2ccc(Br)cc12 [Example 1388] | 1530 |
| Cc1c(NC(=O)c2cc(C(N)=O)nc3ccc(S(C)(=O)=O)cc23)c(C(F)(F)F)nn1Cc1ccc(C#N)cc1 [Example 1389] | 1930 |
| COC(=O)c1cc(C(=O)Nc2c(C)nn(Cc3ccc(C#N)cc3)c2C)c2ccc(OC)cc2n1 [Example 1390] | 229 |
| CCc1nn(Cc2ccc(F)cc2)c(CC)c1NC(=O)c1cc(C(N)=O)nc2cc(Cl)ccc12 [Example 1391] | 362 |
| Cc1c(NC(=O)c2cc(C(N)=O)nc3cc(F)ccc23)c(C(F)(F)F)nn1Cc1ncccc1C#N [Example 1392] | 15.5 |
| Cc1c(NC(=O)c2cc(C(N)=O)nc3ccccc23)c(C(F)(F)F)nn1Cc1ncccc1C#N [Example 1393] | 15 |
| Cc1c(NC(=O)c2cc(C(N)=O)nc3ccc(N4CCN(C)CC4)cc23)c(C(F)(F)F)nn1Cc1ccc(C#N)cc1 [Example 1394] | 127 |
| Cc1c(NC(=O)c2cc(C(N)=O)nc3cccc(F)c23)c(C(F)(F)F)nn1Cc1ncccc1C#N [Example 1395] | 12.6 |

| Structure (SMILES) | IC50 [nM] |
| --- | --- |
| Cc1c(NC(=O)c2cc(C(N)=O)nc3cc(F)ccc23)c(C(F)(F)F)nn1Cc1ccc(F)c(F)c1 [Example 1396] | 4.6 |
| Cc1nn(Cc2ccc(C#N)cc2)c(C)c1NC(=O)c1cc(C(=O)NCCO)nc2cc(F)ccc12 [Example 1399] | 132 |
| Cc1c(NC(=O)c2cc(C(=O)NCCN(C)C)nc3cc(F)ccc23)c(C(F)(F)F)nn1Cc1ccc(C#N)cc1 [Example 1400] | 2610 |
| Cc1nn(Cc2ccc(C#N)cc2)c(C)c1NC(=O)c1cc(C(=O)NCCN(C)C)nc2cc(F)ccc12 [Example 1401] | 1240 |
| Cc1nn(Cc2ccc(C#N)cc2)c(C)c1NC(=O)c1cc(C(=O)NCCN2CCOCC2)nc2cc(F)ccc12 [Example 1402] | 238 |
| Cc1c(NC(=O)c2cc(C(=O)NCCO)nc3cc(F)ccc23)c(C(F)(F)F)nn1Cc1ccc(C#N)cc1 [Example 1403] | 245 |
| Cc1nn(Cc2ccc(C(C)C)cc2)c(C)c1NC(=O)c1cc(C(N)=O)nc2cc(F)ccc12 [Example 1404] | 3.8 |
| Cc1nn(Cc2ccc(C(C)C)cc2)c(C)c1NC(=O)c1cc(C(N)=O)nc2ccccc12 [Example 1405] | 8.2 |
| Cc1c(NC(=O)c2cc(C(N)=O)nc3cc(F)ccc23)c(C(F)(F)F)nn1Cc1ccc(C(C)C)cc1 [Example 1406] | 119 |
| Cc1c(NC(=O)c2cc(C(N)=O)nc3ccccc23)c(C(F)(F)F)nn1Cc1ccc(C(C)C)cc1 [Example 1407] | 28.7 |
| Cc1nn(Cc2ncccc2C#N)c(C)c1NC(=O)c1cc(C(N)=O)nc2ccc(Br)cc12 [Example 1408] | 4.9 |
| Cc1nn(Cc2ncccc2C#N)c(C)c1NC(=O)c1cc(C(N)=O)nc2cc(F)ccc12 [Example 1409] | 11.1 |
| Cc1nn(Cc2ncccc2C#N)c(C)c1NC(=O)c1cc(C(N)=O)nc2cccc(F)c12 [Example 1410] | 30.6 |
| Cc1nn(Cc2ncccc2C#N)c(C)c1NC(=O)c1cc(C(N)=O)nc2cc(F)c(Cl)cc12 [Example 1411] | 3.2 |
| CCc1ccc(Cn2nc(C(F)(F)F)c(NC(=O)c3cc(C(N)=O)nc4ccccc34)c2C)cc1 [Example 1413] | 1.1 |
| CCc1ccc(Cn2nc(C(F)(F)F)c(NC(=O)c3cc(C(N)=O)nc4ccc(Br)cc34)c2C)cc1 [Example 1414] | 0.8 |
| CCc1ccc(Cn2nc(C(F)(F)F)c(NC(=O)c3cc(C(N)=O)nc4cc(F)c(Cl)cc34)c2C)cc1 [Example 1415] | 3.3 |
| Cc1nn(Cc2ccncn2)c(C)c1NC(=O)c1cc(C(F)(F)F)nc2ccc(Br)cc12 [Example 1416] | 97 |
| Cc1nn(Cc2ccncn2)c(C)c1NC(=O)c1cc(C(N)=O)nc2ccccc12 [Example 1417] | 164 |
| COc1cc(C(=O)Nc2c(C#N)nn(Cc3ccc(F)cc3)c2C)c2ccccc2n1 [Example 1418] | 34.1 |
| Cc1nn(Cc2ccc(C(=O)N3CCC3)cc2)c(C)c1NC(=O)c1cc(C(N)=O)nc2cc(F)ccc12 [Example 1419] | 24.6 |
| Cc1nn(Cc2ccc(C(=O)NCCO)cc2)c(C)c1NC(=O)c1cc(C(N)=O)nc2cc(F)ccc12 [Example 1420] | 354 |
